BindingDB's records for PubMed 38330869 (National Institute of Pharmaceutical Education and …)

Experiment: Inhibition of wild type influenza A virus H5N1 (A/chicken/Hubei/327/2004) matrix protein 2 transfected in yeast assessed as yeast growth restoration measured after 46 to 48 hrs

SMILES | EC50 [nM]
Cc1cc(CNS(=O)(=O)c2ccc([N+](=O)[O-])cc2)c(C)s1 | 2210
Cc1cc(CNS(=O)(=O)c2ccc(Cl)cc2)c(C)o1 | 3070
Cc1cc(CNS(=O)(=O)c2ccc(Cl)cc2)c(C)s1 | 1080
Cc1cc(CNS(=O)(=O)c2ccc(C#N)cc2)c(C)s1 | 1400
Cc1cc(CNS(=O)(=O)c2ccc([N+](=O)[O-])cc2)c(C)o1 | 1710
O=[N+]([O-])c1ccc(S(=O)(=O)NCc2csc3ccccc23)cc1 | 3440
Cc1cc(CNS(=O)(=O)c2ccc(Br)cc2)c(C)s1 | 1580
